These results are taken from US8815210B2, “Diagnostic composition comprising plasma cations having superior safety profile” (GE Healthcare AS, priority 2009, dated 2014).

Broadly, the logP is a log measure of how a compound divides between an organic and an aqueous phase. A lower logP goes with a more hydrophilic compound.

Entries after “also recorded” stand apart in the source; their conditions may differ.

Data set [1] can be described thus: Partition coefficient between octanol and water. The format is physicochemical. The following applies: n-octanol/water. The procedure:
As a measure of the hydrophilicity of Compound I, the partition coefficient between octanol and water was determined. Water (5 ml) containing the test substance (0.3 mg/ml) was shaken with 15 ml n-octanol until equilibrium had been obtained. The aqueous phase was separated by centrifugation and analyzed by HPLC (HP1100 equipped with a Discovery C18 column, 100×2.1 mm) using UV detection at 244 nm and a flow of 0.3 ml/min. Isocratic HPLC conditions were used, 8% acetonitrile in water (v/v). The octanol phase (12.5 ml) was extracted with water (0.75 ml) until equilibrium had been obtained and the phases were separated by centrifugation. The aqueous phase was analyzed by HPLC using the conditions detailed above. Both octanol and water were pre-saturated with water and octanol, respectively, before the partition coefficient experiments. […] As a comparison, the corresponding logP of iodixanol was determined to −4.02. The reported literature value is −4.05. The increased hydrophilicity of Compound I compared to iodixanol is confirmed by its HPLC behavior.

In data set [2] the test system is CD25^+-depleted peripheral blood mononuclear cells. The experiment in a line: In vitro T cell proliferation model. The format is cell-based. The following applies: 2 and 5 mg I/mL, 100 donors, positive response stimulation index ≧1.9. The procedure: Generally, iodinated contrast media may cause late hypersensitivity reactions in susceptible patients from 1 hour to several days after exposure. These reactions are mainly non-serious skin eruptions such as macular, maculopapular and urticaria-like eruptions. Contrast media-induced delayed adverse reactions (DARs) such as skin eruptions appear to be caused by contrast media-reactive T cells that, upon recognizing the contrast media, proliferate and subsequently orchestrate an inflammatory reaction in the skin. The applicant has evaluated an in vitro T cell proliferation model designed to predict the relative frequency with which contrast media, such as Compound I, will cause late skin reactions in patients post-intravascular administration. Two contrast media, iodixanol and iohexol, with known rates of delayed skin reactions, and the new contrast medium, Compound I, was screened (2 and 5 mg I/mL) for in vitro T cell proliferation in CD25^+-depleted peripheral blood mononuclear cells from 100 donors representing world population HLA-DR frequencies. Positive T cell responses were evaluated according to published protocols and stimulation index values (positive response≧1.9). In vitro toxicity was tested by measuring cell viability of the first 10 donor samples incubated with test contrast media (5 mg I/mL). The results were that all major HLA-DR allotypes were represented with a frequency equivalent to the world population. No contrast media tested appeared to have a meaningful effect on cell viability. […] For iodixanol and iohexol, T cell proliferation responses for most donors occurred on days 7 and 8; statistical significance favored a reduced proliferation response to Compound I on day 8. In conclusions the model successfully established the relative frequency with which contrast media caused in vitro T cell activation. The results correlated with reported frequency of late skin reactions with two marketed contrast media and identified a lower frequency for Compound I.

A short description of data set [3]: Osmolality, vapour pressure osmometer. The format is physicochemical. The settings on record: 320 mgI/ml. The procedure: The osmolality of Compound I was determined at four different concentrations, 204, 254, 310 and 324 mgI/ml. The osmolality of Compound I at 320 mgI/ml is 136 mOsm/kg.
The osmolality of Compound I was determined at four different concentrations, 204, 254, 310 and 324 mgI/ml. A Vapro 5520 vapour pressure osmometer from Vapro Inc. was used.
The osmolality of Compound I at 320 mgI/ml is lower than that of iodixanol, 136 mOsm/kg vs 210 mOsm/kg at 320 mgI/ml.

For data set [4], the system named is normal pigs. The experiment in a line: Haemodynamic effects after fast LAD injection in normal pigs (Example 2c). It counts as in vivo, pig. The settings on record: 40 ml at 5 ml/sec into LAD; Compound I in composition with 45 mM NaCl and 0.5 mM CaCl2. The procedure: FIG. 6 a) and b) depicts the effect on cardiovascular parameters following injection of 40 ml (5 ml/sec) of Ringer Lactate, Compound I, Visipaque or Iopamidol to the LAD of normal pigs.
In a further study the haemodynamic effects of Compound I in a composition with 45 mM NaCl and 0.5 mM CaCl2 was compared to Visipaque and Iopamidol following selective administration to the LAD of normal pigs with a fast injection rate (5 ml/sec). Ringer Lactate was also studied as a volume and electrolyte “ratio” control. In total 3 pigs were studied, and each CM was administered twice to each pig in random order. The injection rate used was 5 ml/sec with a total injection volume of 40 ml.

As for `O=CN(CC(O)CN(C=O)c1c(I)c(C(=O)NCC(O)CO)c(I)c(C(=O)NCC(O)CO)c1I)c1c(I)c(C(=O)NCC(O)CO)c(I)c(C(=O)NCC(O)CO)c1I` (stereo not shown) [Compound I, 5-[formyl-[3-[formyl-[3,5-bis(2,3-dihydroxypropylcarbamoyl)-2,4,6-triiodophenyl]amino]-2-hydroxypropyl]amino]-N,N′-bis(2,3-dihydroxypropyl)-2,4,6-triiodobenzene-1,3-dicarboxamide], the logP in data set [1] was -4.28. In addition, in data set [2], the “positive T cell proliferation donor samples” value is “fewer positive T cell proliferation donor samples compared with iodixanol and iohexol; also recorded: lowest capacity for stimulating in vitro T cell proliferation”. The compound further came in with an osmolality in data set [3] of 136 mOsm/kg. Further, the “increase in LVSP from baseline” value in data set [4] was ~5%.
